Usually EC50 stands for the concentration at which the effect is half-maximal.

This passage reports EC50 results from patent publication US20120058920A1, “Method for Identifying Inhibitors Against Dengue Virus” (priority 2009, published 2012).

Where two headings read alike, the source gives them in different places.

In this experiment the test system is dengue serotype 2. The experiment is described as follows: Antiviral assay (dengue serotype 2), CPE inhibition in Vero cells with ATPLite luminescence readout. In kind it is cell-based, dengue virus. The protocol:
3. Antiviral assays (dengue serotype 2)
15 μl of Vero cells (1500 cells/well) were added to a 384-well white plate containing 10 μl of four-fold serially diluted testing compound in cell culture medium with 2% FCS. 15 μl of virus stock was then added to each well at a MOI of 0.1. Cell controls received only cells and medium, while virus controls received virus but no test compound. Plates were incubated at 37° C. until the viral CPE in the virus control wells reached ˜100% (5-6 days). ATPLite (Perkin Elmer) was added to all wells according to the supplier's instructions. Briefly, 40 μl of the reconstituted lyophilized substrate solution was added to each well. The plate was shaken at 700 rpm for 2 minutes and the luminescence was measured using a Viewlux apparatus (Perkin Elmer) by taking a 0.1-0.5-second integrated reading of each test plate. The results were expressed as EC50 values defined as the concentration of compound achieving 50% inhibition of the virus-reduced luminescence signals as compared with the uninfected cell control. The signal-to-noise ratio of an assay is the ratio between the mean luminescent signals of the cell controls and the virus controls. The dynamic range is defined as the ratio between the signals at the last (maximal signal) and first point in the linear range of the dose-response curve.
Intra-assay reproducibility was measured by performing each experiment in three identical plates with each concentration of drug in triplicate. Inter-assay reproducibility was measured by performing three independent experiments at different times under the same experimental conditions.
(In ATP-based viability assays light output follows the ATP content of the culture.)

Setting [1] is: Dengue virus, Vero, accuracy of the assay, value ± spread over many measurements (# data 42-54), read-out: EC50.
[2] abbreviates: Dengue virus, Vero cells 1500 cells/well, MOI 0.1, 5-6 days, ATPLite, Exp. # 1, read-out: EC50 (μM) Exp. # 1.
The mark [3] stands for this setting: Dengue virus, Vero cells 1500 cells/well, MOI 0.1, 5-6 days, ATPLite, Exp. # 2, read-out: EC50 (μM) Exp. # 2.
The mark [4] stands for this setting: Dengue virus, Vero cells 1500 cells/well, MOI 0.1, 5-6 days, ATPLite, Exp. # 3, read-out: EC50 (μM) Exp. # 3.
Where [5] appears, read: Dengue virus, Vero cells 1500 cells/well, MOI 0.1, 5-6 days, ATPLite, Exp. # 4, read-out: EC50 (μM) Exp. # 4.
Setting [6] is: Dengue virus, Vero cells 1500 cells/well, MOI 0.1, 5-6 days, ATPLite, Exp. # 5, read-out: EC50 (μM) Exp. # 5.
Setting [7] is: Dengue virus, Vero cells 1500 cells/well, MOI 0.1, 5-6 days, ATPLite, Exp. # 6, read-out: EC50 (μM) Exp. # 6.
Where [8] appears, read: Dengue virus, Vero cells 1500 cells/well, MOI 0.1, 5-6 days, ATPLite, Exp. # 7, read-out: EC50 (μM) Exp. # 7.

In the case of `NC(=O)c1ncn([C@@H]2O[C@H](CO)[C@@H](O)[C@H]2O)n1` [Ribavirin], the EC50 runs as follows: under setting [1], 53 ± 10.2 µM; under setting [2], 52 µM; under setting [3], 53.8 µM; under setting [4], 43.8 µM; under setting [5], 42.4 µM; under setting [6], 47.7 µM. For the same molecule, the EC50 under setting [7] stood at 69 µM and the EC50 under setting [8] was determined as 67.5 µM.

As for `O=c1cnn([C@@H]2O[C@H](CO)[C@@H](O)[C@H]2O)c(=O)[nH]1` [6-Azauridine], the EC50 reads like this: under setting [1], 4.53 ± 0.83 µM; under setting [2], 5.52 µM; under setting [3], 4.85 µM; under setting [4], 3.74 µM; under setting [5], 4.26 µM; under setting [6], 4.6 µM. For the same molecule, the EC50 under setting [7] was determined as 3.81 µM and the EC50 under setting [8] turned out to be 5.14 µM.

Regarding Interferon-α, for the setting “accuracy of the assay, value ± spread over 30 measurements”, the EC50 was 861.2 IU/ml ± 427.11.

For the molecule `C[C@@]1(O)[C@H](O)[C@@H](CO)O[C@H]1n1ccc(N)nc1=O` [2′-C-methylcytidine], the EC50 by setting is: under setting [1], 12.6 ± 3.32 µM; under setting [2], 13.5 µM; under setting [3], 14.6 µM; under setting [4], 10.3 µM; under setting [5], 10.4 µM; under setting [6], 6.73 µM. The EC50 is 14 µM under setting [7] and 17.4 µM under setting [8].
